Experimental findings from ChEMBL document CHEMBL1144144, “Methylsulfomycin I, a new cyclic peptide antibiotic from a Streptomyces sp. HIL Y-9420704” (1999) are described below.

SMILES strings stand for the structures. Converted amounts (≈) assume the structure as drawn.

Experiment [1] has as its system Staphylococcus epidermidis. In words: Antimicrobial activity against teicoplanin-sensitive Staphylococcus epidermidis 825. The format is functional.
Experiment [2] deals with Enterococcus faecium. Description: Antimicrobial activity against vancomycin and teicoplanin-resistant Enterococcus faecium R-2. The format is functional.
The subject of experiment [3] is Enterococcus faecium. In words: Antimicrobial activity against vancomycin and teicoplanin-resistant Enterococcus faecium R-1. The format is functional.
Experiment [4] concerns Enterococcus faecium. In words: Antimicrobial activity against vancomycin and teicoplanin-resistant Enterococcus faecium P-1. The format is functional.
Experiment [5] relates to Staphylococcus haemolyticus. Description: Antimicrobial activity against teicoplanin-sensitive Staphylococcus haemolyticus 712. The format is functional.
Experiment [6] relates to Enterococcus equinus. Description: Antimicrobial activity against vancomycin and teicoplanin-resistant Enterococcus equinus.
Experiment [7] concerns Staphylococcus aureus. Description: Antimicrobial activity against methicillin-resistant Staphylococcus aureus. The format is functional.
In experiment [8] the test system is Staphylococcus haemolyticus. Description: Antimicrobial activity against teicoplanin-sensitive Staphylococcus haemolyticus 712 relative to vancomycin. Format: functional.
The subject of experiment [9] is Enterococcus faecium. In words: Antimicrobial activity against vancomycin and teicoplanin-resistant Enterococcus faecium R-2 relative to vancomycin. Format: functional.
Experiment [10] concerns Staphylococcus epidermidis. In words: Antimicrobial activity against teicoplanin-resistant Staphylococcus epidermidis 823 relative to vancomycin. Format: functional.
For experiment [11], the system named is Staphylococcus haemolyticus. In words: Antimicrobial activity against teicoplanin-resistant Staphylococcus haemolyticus 712 relative to vancomycin. Format: functional.
For experiment [12], the system named is Enterococcus faecium. Description: Antimicrobial activity against vancomycin and teicoplanin-resistant Enterococcus faecium P-1 relative to vancomycin. Format: functional.
The subject of experiment [13] is Enterococcus faecium. In words: Antimicrobial activity against vancomycin and teicoplanin-resistant Enterococcus faecium R-1 relative to vancomycin. Format: functional.
In experiment [14] the test system is Staphylococcus epidermidis. In words: Antimicrobial activity against teicoplanin-sensitive Staphylococcus epidermidis 825 relative to vancomycin. The format is functional.
For experiment [15], the system named is Enterococcus equinus. In words: Antimicrobial activity against vancomycin and teicoplanin-resistant Enterococcus equinus relative to vancomycin.
The test system of experiment [16] is Enterococcus. Description: Antimicrobial activity against Enterococcus species. The format is functional.

As a reminder, the MIC is the smallest concentration in the dilution series that meets the test's criterion for growth inhibition. Read a low MIC as greater potency. With `CN[C@H](CC(C)C)C(=O)N[C@H]1C(=O)N[C@@H](CC(N)=O)C(=O)N[C@H]2C(=O)N[C@H]3C(=O)N[C@H](C(=O)N[C@H](C(=O)O)c4cc(O)cc(O)c4-c4cc3ccc4O)[C@H](O)c3ccc(c(Cl)c3)Oc3cc2cc(c3O[C@@H]2O[C@H](CO)[C@@H](O)[C@H](O)[C@H]2O[C@H]2C[C@](C)(N)[C@H](O)[C@H](C)O2)Oc2ccc(cc2Cl)[C@H]1O` [VANCOMYCIN], the MIC in experiment [1] was 0.78 µg/mL (≈ 0.538 µM); in experiment [2], greater than 100 µg/mL; in [3], greater than 100 µg/mL; in [4] it was greater than 100 µg/mL; in experiment [5], 0.78 µg/mL (≈ 0.538 µM); in experiment [6] it was greater than 100 µg/mL.
`C=C(NC(=O)C(=C)NC(=O)C(=C)NC(=O)c1ccc2c(n1)-c1nc(oc1C)C(=C)NC(=O)C(=C)NC(=O)c1nc(oc1C)/C(=C/C)NC(=O)c1csc(n1)[C@H](OC)NC(=O)c1nc(oc1C)/C(=C\C(C)O)NC(=O)[C@H]([C@@H](C)O)NC(=O)c1csc-2n1)C(N)=O` (stereo partly specified) [METHYLSULFOMYCIN I]: the MIC in experiment [7] and in experiment [16] was 0.06 µg/mL (≈ 0.0476 µM) each time. The “fold change (FC)” value in experiment [8] was 6.2; in experiment [9], greater than 800; in experiment [10] it was 12.4; in experiment [11], 12.4; in experiment [12] it was greater than 800; in experiment [13] it was greater than 800. For the same compound, the entries for the “fold change (FC)” value in experiment [14] and in experiment [15] were 6.2 and greater than 800, respectively.
